Square brackets hold non-standard residues; d marks the D form. Peptide text beside a SMILES is read from it. pY = N[C@@H](Cc1ccc(OP(=O)(O)O)cc1)C(=O)O; Ahp(2) = CCCCC[C@H](N)C(=O)O; Nle = CCCC[C@H](N)C(=O)O; Nva = CCC[C@H](N)C(=O)O; Abu = CC[C@H](N)C(=O)O
target: Growth factor receptor-bound protein 2 (Homo sapiens) (UniProt P62993); assay: Binding affinity to Grb2 SH2 domain (53 to 163) (unknown origin) expressed in Escherichia coli SG13009 by ITC analysis
Sequence (P62993 whole entry, looked up, the tested form may be a part): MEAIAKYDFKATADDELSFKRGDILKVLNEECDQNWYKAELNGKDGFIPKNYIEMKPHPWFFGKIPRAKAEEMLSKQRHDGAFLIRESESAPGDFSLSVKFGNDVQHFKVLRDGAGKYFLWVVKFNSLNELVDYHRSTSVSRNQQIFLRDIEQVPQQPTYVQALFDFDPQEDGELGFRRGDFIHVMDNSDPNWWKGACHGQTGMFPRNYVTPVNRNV

Point of comparison: CCC[C@H](NC(=O)[C@H](Cc1ccc(OP(=O)(O)O)cc1)NC(C)=O)C(=O)N[C@@H](CC(N)=O)C(N)=O (Ac-[pY]-[Nva]-Asn-NH2), Ka 7.6 ×10⁵ /M. Against it:
- C/C=C\[C@H](NC(=O)[C@H](Cc1ccc(OP(=O)(O)O)cc1)NC(C)=O)C(=O)N[C@@H](CC(N)=O)C(N)=O — lower, 6.1 ×10⁵ /M
- CC(=O)N[C@@H](Cc1ccc(OP(=O)(O)O)cc1)C(=O)N[C@@H](C)C(=O)N[C@@H](CC(N)=O)C(N)=O (Ac-[pY]-Ala-Asn-NH2) — lower, 2.2 ×10⁵ /M
- CC[C@H](NC(=O)[C@H](Cc1ccc(OP(=O)(O)O)cc1)NC(C)=O)C(=O)N[C@@H](CC(N)=O)C(N)=O (Ac-[pY]-[Abu]-Asn-NH2) — higher, 8.6 ×10⁵ /M
- CCCCC[C@H](NC(=O)[C@H](Cc1ccc(OP(=O)(O)O)cc1)NC(C)=O)C(=O)N[C@@H](CC(N)=O)C(N)=O (Ac-[pY]-[Ahp(2)]-Asn-NH2) — higher, 7.8 ×10⁵ /M
- CCCC[C@H](NC(=O)[C@H](Cc1ccc(OP(=O)(O)O)cc1)NC(C)=O)C(=O)N[C@@H](CC(N)=O)C(N)=O (Ac-[pY]-[Nle]-Asn-NH2) — higher, 8.4 ×10⁵ /M
